Laboratory results taken from patent US9765075B2, “Substituted bridged urea analogs as sirtuin modulators” (GLAXOSMITHKLINE LLC, priority 2013, dated 2017).
Residue numbers refer to the chain shown, from its start.

What was measured:
Assay in all cases: SIRT1 activation dose-response, OAcADPr assay with Ac-p53(W5) substrate
Type in all cases: biochemical
full-length hSIRT1 Q222A = target: T1, full-length hSIRT1 Q222A (Homo sapiens, UniProt Q96EB6, Q222A); conditions: for EC50: hSIRT1 Q222A, activation dose-response, Ac-p53(W5) substrate
T1 construct: The following point mutants of full-length hSIRT1 were generated; made in house
T1 sequence (Q96EB6 1-747 Q222A): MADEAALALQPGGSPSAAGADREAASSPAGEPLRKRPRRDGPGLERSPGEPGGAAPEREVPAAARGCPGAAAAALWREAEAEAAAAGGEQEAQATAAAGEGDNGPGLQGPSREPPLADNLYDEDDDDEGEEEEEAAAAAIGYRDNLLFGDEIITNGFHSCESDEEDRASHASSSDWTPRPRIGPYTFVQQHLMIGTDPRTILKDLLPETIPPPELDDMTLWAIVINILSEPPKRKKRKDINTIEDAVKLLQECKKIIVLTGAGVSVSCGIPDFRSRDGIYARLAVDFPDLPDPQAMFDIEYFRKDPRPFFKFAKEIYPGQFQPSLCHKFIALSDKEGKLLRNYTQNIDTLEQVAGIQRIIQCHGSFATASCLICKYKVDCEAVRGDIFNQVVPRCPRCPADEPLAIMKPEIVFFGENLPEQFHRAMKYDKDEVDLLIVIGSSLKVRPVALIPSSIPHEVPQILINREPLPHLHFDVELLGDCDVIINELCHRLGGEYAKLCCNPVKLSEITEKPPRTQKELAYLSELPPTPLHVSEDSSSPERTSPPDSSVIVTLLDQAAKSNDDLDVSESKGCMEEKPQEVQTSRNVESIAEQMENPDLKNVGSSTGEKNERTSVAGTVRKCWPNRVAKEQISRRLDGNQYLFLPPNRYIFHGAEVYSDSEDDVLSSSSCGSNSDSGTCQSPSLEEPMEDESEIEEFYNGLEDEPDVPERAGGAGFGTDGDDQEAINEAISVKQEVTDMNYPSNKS

full-length hSIRT1 V224A = target: T2, full-length hSIRT1 V224A (Homo sapiens, UniProt Q96EB6, V224A); conditions: for EC50: hSIRT1 V224A, activation dose-response, Ac-p53(W5) substrate
T2 construct: The following point mutants of full-length hSIRT1 were generated; His6 (C); made in house
T2 sequence (Q96EB6 1-747 V224A): T1 sequence (Q96EB6 1-747 Q222A) with A222Q, V224A

full-length hSIRT1 E230K = target: T3, full-length hSIRT1 E230K (Homo sapiens, UniProt Q96EB6, E230K); conditions: for EC50: hSIRT1 E230K, activation dose-response, Ac-p53(W5) substrate
T3 construct: His6 (C); made in house
T3 sequence (Q96EB6 1-747 E230K): T1 sequence (Q96EB6 1-747 Q222A) with A222Q, E230K

For O=C(Nc1ccccn1)N1c2nc(-c3cccc(C(F)(F)F)c3)ccc2N2CC[C@H]1C2 [Example 7], the “EC50 fold shift (mutant EC50/wild-type EC50)” value (full-length hSIRT1 Q222A) was 0.91, the “RVmax fold shift = (wild-type RVmax−1)/(mutant RVmax−1)” value (“RVmax fold shift =” for short) (full-length hSIRT1 Q222A) was 0.98 and the EC50 (full-length hSIRT1 Q222A) was 2010 nM. For the same compound, the “EC50 fold shift (mutant EC50/wild-type EC50)” value (full-length hSIRT1 V224A) was 1.18, the “RVmax fold shift =” value (full-length hSIRT1 V224A) was 0.72 and the EC50 (full-length hSIRT1 V224A) was 2600 nM. The “EC50 fold shift (mutant EC50/wild-type EC50)” value (full-length hSIRT1 E230K) was 1.46, the “RVmax fold shift =” value (full-length hSIRT1 E230K) was 8.67 and the EC50 (full-length hSIRT1 E230K) was 3210 nM.
In the case of Cc1cnc2c(NC(=O)N3c4nc(-c5cccc(C(F)(F)F)c5)ccc4N4CC[C@H]3C4)cccc2n1 [Example 8], the “EC50 fold shift (mutant EC50/wild-type EC50)” value (full-length hSIRT1 Q222A) is reported as 1.07, the “RVmax fold shift =” value (full-length hSIRT1 Q222A) is reported as 1.22 and the EC50 (full-length hSIRT1 Q222A) is reported as 510 nM. For the same compound, the “EC50 fold shift (mutant EC50/wild-type EC50)” value (full-length hSIRT1 V224A) was 1.87, the “RVmax fold shift =” value (full-length hSIRT1 V224A) was 0.79 and the EC50 (full-length hSIRT1 V224A) was 900 nM. The “EC50 fold shift (mutant EC50/wild-type EC50)” value (full-length hSIRT1 E230K) was 1.46, the “RVmax fold shift =” value (full-length hSIRT1 E230K) was 5.36 and the EC50 (full-length hSIRT1 E230K) was 700 nM.
